Assay results as given in patent US10828578B2, “Reversible control of solution solubility using functionalized nanoparticles” (Massachusetts Institute of Technology, priority 2016, dated 2020).
≈ marks a conversion by molar mass, not a printed value. Values belong to the compound of their own block, whether it stands above or below them.

Legend:
physchem [1] = conditions: water
Method: The method development involved the study of methanol and acetonitrile as organic modifiers, pH and flow-rate using a Chromolith RP-18e (150 mm×4.6 mm I.D.) column. After comparing the performance the optimum analysis of these compounds was achieved using 50 mM acetate buffer (pH 5.0)-acetonitrile (80:20, v/v) as mobile phase, 1 mL min-1 flow-rate and UV detection at maximum absorbance wavelength of 250 nm.

[2] = Solubility enhancement in water with glycolic acid functionalized iron oxide nanoparticles (HPLC); conditions: 2 ml suspension 20 g/L in water + 200 mg glycolic acid IONPs; part converted to 4-aminophenol
Method: The clear solution was analyzed using HPLC in order to determine the final concentration.

[3] = Solubility and metastable zone width of D-mannitol in water and water-ethanol mixtures (Crystal16); assay type: physicochemical; conditions: with an increase in the amount of ethanol (85-15, 75-25, 50-50% wt/wt water-ethanol)
Excerpt: According to the results of D-mannitol in water and water-ethanol mixtures, the solubility decreases with an increase in the amount of ethanol in water-ethanol mixtures. In order to know the required amount of functionalized nanoparticles and the operating region for crystallization, the MSZW of D-mannitol is important. For the samples of D-mannitol in the mixtures of 85-15 and 75-25% wt/wt of water-ethanol, the cloud point lies above the saturation temperature of D-mannitol in pure water. This means that, for the mixtures of 85-15 and 75-25% water-ethanol, and the solutes with a concentration of 193 mg/ml at 20° C., spontaneous nucleation will not occur because they will remain in solution. However, these experiments helped to determine the optimum operating supersaturation levels as well as the amount of antisolvent required to crystallize compounds at a given concentration. […]
The solubility and metastable zone width (MSZW) of D-mannitol was measured in pure DI water and DI water-ethanol mixtures at different concentrations by adding a known amount of D-mannitol and 1 mL of solvent or solvent mixtures respectively to a 1.5 mL glass vial. […] The temperature at which the suspension turned into a clear solution was recorded and assumed to be the saturation temperature. […] The temperatures at which the crystals are detected are assumed to be a cloud point. […]

[4] = NaCl concentration change in water after crystallization with functionalized gold nanoparticles (digital density meter); assay type: physicochemical; conditions: 1.8 nm gold nanoparticles with ethanol group, seeded, 16 hour stirring
Excerpt: The antisolvent crystallization of NaCl is the best example of the influence of agglomeration on the final product purity. Though the crystals are crystallized from a mother liquor containing as much as 50% weight antisolvent (on a solvent basis), the uptake of the antisolvent is as low as 30 ppm. In the present study, functionalized nanoparticles were used to crystallize NaCl from a water solution. NaCl is highly soluble in water and slightly soluble in ethanol. In the case of NaCl crystallization, water was used as a solvent and ethanol was used as an antisolvent. NaCl was crystallized in water using 1.8 nm functionalized nanoparticles with an ethanol group at the open terminal. […] After 4 hours the sample was seeded with NaCl crystals and the sample was crystallized only after 16 hour of stirring. The initial and final concentration of NaCl was measured using the Digital Density Meter DMA4500. This instrument is used for accurate measurements of solvent density necessary for the concentration measurements. […] The change in concentration after crystallization measured using the digital density meter was 27 mg.

physchem [5] = conditions: water, thermodynamic from solid
Method: A saturated solution of ibuprofen in water was prepared at room temperature. […] An additional 20 mg of ibuprofen was added to 5 mL of the saturated solution. Then, 200 mg of iron oxide nanoparticles that had been functionalized with glycolic acid were added and mixed. Clear samples of solution were then taken from the slurry and analyzed with HPLC.

SMILES: O=[N+]([O-])c1ccc(O)cc1 [4-nitrophenol]
- solubility thermodynamic at 24 h (physchem [1]; 20 °C, thermodynamic from solid): 13 mg/mL (≈ 93.5 mM)
- solubility at 24 h (physchem [1]; 25 °C): 13 mg/mL (≈ 93.5 mM)
- concentration in clear solution after IONP addition [2]: 16500 µg/mL

- solubility of D-mannitol in water-ethanol mixtures [3]: decreases
SMILES: OC[C@@H](O)[C@@H](O)[C@H](O)[C@H](O)CO [D-mannitol]

SMILES: [Cl-].[Na+] [NaCl, Sodium chloride]
- change in concentration after crystallization [4]: 27 mg

- solubility (physchem [5]): 0.009 mg/mL (≈ 0.0436 mM)
SMILES: CC(C)Cc1ccc(C(C)C(=O)O)cc1 (stereo not drawn) [ibuprofen]
